Some test systems named below: UACC-62 melanoma; OVCAR-8 ovarian; UO-31 renal; HCT-116 colon; U251 CNS; IGROV1 ovarian; PC-3 prostate; NCI-H460 lung; MDA-MB-231 breast; MDA-N.
Common to all, as to experiment: NCI anticancer screen, dose series, 48 h

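The compound was tested at five concentrations on cells cultured in 96-well plates, with a 48-hour exposure period. TGI: concentration producing complete growth inhibition.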

For `O=P(Nc1ccccc1)(Oc1ccccc1)N(CCCl)CCCl` (stereo not given), the TGI is more than 100 µM in the assay on UACC-62 melanoma; more than 100 µM in the assay with OVCAR-8 ovarian; 28.2 µM with UO-31 renal; more than 100 µM in the assay with HCT-116 colon; more than 100 µM in the assay with U251 CNS; more than 100 µM in the assay on IGROV1 ovarian.
For `COc1c(Br)cc2ccccc2c1-c1c(OC)c(Br)cc2ccccc12`, the TGI with UACC-62 melanoma, with PC-3 prostate, in the assay with OVCAR-8 ovarian, in the assay on UO-31 renal, in the assay with NCI-H460 lung and in the assay on MDA-MB-231 breast was more than 100 µM in each case. The TGI in the assay with U251 CNS, in the assay on IGROV1 ovarian and with MDA-N was more than 100 µM in each case.
Regarding `O=C(CN1CCCCC1)Nc1ccc2c(c1)C1Oc3ccccc3CC1CO2` (stereo not given), the TGI with UACC-62 melanoma was 34.1 µM; with PC-3 prostate it was 35 µM; in the assay with OVCAR-8 ovarian, more than 100 µM; in the assay on UO-31 renal, 72.7 µM; in the assay with MDA-MB-231 breast, 36.8 µM; with HCT-116 colon, 35.2 µM. In addition, the TGI is 33.3 µM in the assay with U251 CNS, 58 µM in the assay on IGROV1 ovarian and 36.7 µM in the assay on MDA-N.
With `CC(C)C(=O)/C=C/S/C=C/C(=O)C(C)C`, the TGI with UACC-62 melanoma is 27.9 µM; in the assay with OVCAR-8 ovarian it was 6.48 µM; with UO-31 renal it was 62.7 µM; in the assay with NCI-H460 lung, more than 100 µM; in the assay with MDA-MB-231 breast, 15.9 µM; in the assay on U251 CNS, 70.6 µM. Also, in the assay on IGROV1 ovarian, the TGI is 45.8 µM.
In the case of `COC(=O)CNC(=O)CCC(C)[C@H]1CCC2C3C(C[C@H](OC(C)=O)[C@@]21C)[C@@]1(C)CCC2(C[C@H]1C[C@H]3OC(C)=O)OOC1(CC[C@]3(C)C4C[C@H](OC(C)=O)[C@@]5(C)C(CC[C@@H]5C(C)CCC(=O)NCC(=O)OC)C4[C@H](OC(C)=O)C[C@@H]3C1)OO2` (stereo not given in full), the TGI with PC-3 prostate came out at 8.69 µM; in the assay with UO-31 renal it was 1.51 µM; in the assay with NCI-H460 lung, 26.4 µM; in the assay on MDA-MB-231 breast, 5.96 µM; in the assay with HCT-116 colon it was 9.1 µM; in the assay with U251 CNS it was 14 µM. Moreover, the TGI with IGROV1 ovarian was 1.91 µM; with MDA-N, more than 50 µM.
In the case of `CN(CCCNC(=O)c1nn(C)c2c1Cc1ccccc1-2)CCCNC(=O)c1nn(C)c2c1Cc1ccccc1-2`, the TGI in the assay with UACC-62 melanoma stood at 35.9 µM; in the assay on PC-3 prostate it was 34.1 µM; in the assay on OVCAR-8 ovarian, 46 µM; with UO-31 renal it was 5.58 µM; in the assay with NCI-H460 lung it was 37.6 µM; with MDA-MB-231 breast it was 36.1 µM. Moreover, the TGI with HCT-116 colon amounted to 30.2 µM; in the assay with U251 CNS, 26.2 µM; with IGROV1 ovarian, 35 µM.
`O[C@@H]1CCC[C@@H]2NC[C@@H](c3ccc4c(c3)OCO4)[C@H]12`: the TGI in the assay on UACC-62 melanoma, with PC-3 prostate, in the assay with OVCAR-8 ovarian, with UO-31 renal, in the assay with NCI-H460 lung and with MDA-MB-231 breast was more than 100 µM throughout. The TGI in the assay on U251 CNS, in the assay on IGROV1 ovarian and in the assay on MDA-N was more than 100 µM throughout.
With `CN(C)CCNC(=O)c1cccc2nc3c(C(=O)NCCN(C)C)cccc3nc12`, the TGI in the assay on UACC-62 melanoma was 9.6 µM; in the assay on PC-3 prostate it was 2.67 µM; in the assay on OVCAR-8 ovarian, 4.67 µM; in the assay on UO-31 renal it was 34.1 µM; with NCI-H460 lung, 7.91 µM; in the assay with MDA-MB-231 breast it was 3.4 µM. The TGI was 13.4 µM with HCT-116 colon, 11.2 µM in the assay on U251 CNS and more than 23.3 µM in the assay on IGROV1 ovarian.
For the compound `COC(=O)c1c2c(cc3c1CC1(Cc4cc5c(c(C(C)=O)c4C1)CCCC5)C3)CCCC2` (stereo not given), the TGI in the assay with UACC-62 melanoma, in the assay with PC-3 prostate, with OVCAR-8 ovarian, in the assay on MDA-MB-231 breast, in the assay on HCT-116 colon and in the assay on U251 CNS was more than 100 µM throughout. The TGI with IGROV1 ovarian and in the assay on MDA-N was more than 100 µM each time.
Turning to `O=C(N/N=C\c1cccc2ccccc12)Nc1cccc2ccccc12`, the TGI in the assay with PC-3 prostate was more than 100 µM; in the assay on OVCAR-8 ovarian it was more than 100 µM; in the assay on UO-31 renal it was more than 100 µM; in the assay with NCI-H460 lung it was more than 100 µM; in the assay on MDA-MB-231 breast it was 45.8 µM; in the assay with HCT-116 colon, 72 µM. Also, the figures for the TGI with U251 CNS, in the assay on IGROV1 ovarian and in the assay with MDA-N were 34.9 µM, more than 100 µM and 21.2 µM, respectively.
In the case of `C=CCOC(OCC=C)/C(Br)=C/C`, the TGI in the assay with UACC-62 melanoma is more than 100 µM; with PC-3 prostate, more than 100 µM; in the assay with OVCAR-8 ovarian, 37 µM; with UO-31 renal it was more than 100 µM; with NCI-H460 lung it was more than 100 µM; in the assay on MDA-MB-231 breast, more than 100 µM. Also, the TGI is 28.1 µM with HCT-116 colon, more than 100 µM in the assay with U251 CNS and more than 100 µM in the assay with MDA-N.
`C=CC(C)C1(CCCOCc2ccccc2)C(=S)N2CCC3(CC24CCCC14)OCCO3` (stereo not given): the TGI with UACC-62 melanoma, in the assay with OVCAR-8 ovarian, with UO-31 renal, in the assay with NCI-H460 lung, in the assay on U251 CNS and with IGROV1 ovarian was more than 100 µM throughout.
For the compound `CNC(=O)SCC(NC(=O)CCC(N)C(=O)O)C(=O)NCC(=O)O` (stereo not given), the TGI in the assay with UACC-62 melanoma, in the assay on OVCAR-8 ovarian, with UO-31 renal, with NCI-H460 lung, with HCT-116 colon and in the assay with U251 CNS was more than 100 µM throughout. For the same compound, in the assay with IGROV1 ovarian, the TGI was more than 100 µM.
As for `CO/N=C(\C([O-])=N\[n+]1cnn(CC(=O)OC(C)(C)C)c1)c1csc(NC(c2ccccc2)(c2ccccc2)c2ccccc2)n1`, the TGI in the assay with PC-3 prostate, with OVCAR-8 ovarian, with UO-31 renal, in the assay on NCI-H460 lung, in the assay on HCT-116 colon and with U251 CNS was more than 10 µM in each case. In addition, the TGI in the assay with IGROV1 ovarian and with MDA-N was more than 10 µM in each case.
Regarding `COC(=O)C1=C(C(=O)OC)C(N(C)C)C(C(=O)OC)=C(C(=O)OC)S1`, the TGI with UACC-62 melanoma, with PC-3 prostate, in the assay with OVCAR-8 ovarian, in the assay with UO-31 renal, in the assay with NCI-H460 lung and in the assay with MDA-MB-231 breast was more than 100 µM throughout. The TGI with HCT-116 colon, in the assay on U251 CNS and with MDA-N was more than 100 µM in each case.
Turning to `O=C(c1cccs1)N1CCCN(C(=O)c2cccs2)C1=S`, the TGI with UACC-62 melanoma, with PC-3 prostate, with OVCAR-8 ovarian, in the assay with UO-31 renal, with MDA-MB-231 breast and in the assay with HCT-116 colon was more than 100 µM each time. Moreover, the TGI in the assay on U251 CNS and in the assay on IGROV1 ovarian was more than 100 µM each time.
